Where no end group is shown, it is not given here.
Assays:
[1] = target: T1, human PTHR1 (R^0 conformation) (Homo sapiens, UniProt Q03431); assay: Competition binding to the R^0 conformation of PTHR1
T1 construct: expressed in transfected cells; host or cells: COS-7 cells (transient transfection; membranes)
T1 sequence (Q03431 27-593): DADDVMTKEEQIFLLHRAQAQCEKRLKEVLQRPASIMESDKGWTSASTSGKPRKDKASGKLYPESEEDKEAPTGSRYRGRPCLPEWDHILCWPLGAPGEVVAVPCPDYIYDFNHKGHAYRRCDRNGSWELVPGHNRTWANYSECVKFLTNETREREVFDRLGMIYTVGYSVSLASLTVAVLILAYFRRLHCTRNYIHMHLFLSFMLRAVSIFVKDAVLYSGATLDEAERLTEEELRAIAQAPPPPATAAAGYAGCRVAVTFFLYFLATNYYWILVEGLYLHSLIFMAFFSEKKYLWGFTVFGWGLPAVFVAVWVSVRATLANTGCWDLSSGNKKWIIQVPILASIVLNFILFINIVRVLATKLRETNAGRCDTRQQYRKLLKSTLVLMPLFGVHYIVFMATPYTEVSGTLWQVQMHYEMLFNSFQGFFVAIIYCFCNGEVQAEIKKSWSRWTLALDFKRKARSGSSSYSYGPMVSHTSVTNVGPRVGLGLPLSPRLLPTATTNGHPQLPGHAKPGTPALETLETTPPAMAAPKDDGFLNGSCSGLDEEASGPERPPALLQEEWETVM

[2] = target: T2, human PTHR1 (RG conformation) (Homo sapiens, UniProt Q03431); assay: Competition binding to the RG conformation of PTHR1
T2 construct: expressed in transfected cells; host or cells: COS-7 cells (transient co-transfection; membranes)
T2 sequence (Q03431 27-593): T1 sequence (Q03431 27-593)

- IC50 [1]: 2.69 ± 0.99 nM
- IC50 [2]: 0.67 ± 0.05 nM
Sequence: AVAEIQLMHQRAKWIQDLRRRFFLHHLIAEIHTAEI [M‐PTH(1‐14)/PTHrP(15‐36), [Ala^1,3,12,Gln^10,Arg^11,Trp^14]‐PTH(1‐14)/PTHrP(15–36)]

Reference: publication PMC7340446, “Optimization of PTH/PTHrP Hybrid Peptides to Derive a Long‐Acting PTH Analog (LA‐PTH)” (JBMR Plus, 2020)
